Measured values: patent publication US6387329B1, “Use of an array of polymeric sensors of varying thickness for detecting analytes in fluids” (California Institute of Technology, priority 1998, dated 2002)

Tested on: cytochrome P-450 aniline p-hydroxylation
Experiment: inhibitory action of alcohols on cytochrome P-450 aniline p-hydroxylation (data of Cohen and Mannering)
Assay type: biochemical
Details: versus the electronic nose QSAR and another QSAR on the cytochrome P-450 system
Source text: To test the ability of the “electronic nose” to identify molecules of interest having a particular biological activity selected from a library of molecules of interest, a quantitative structure-activity relationship (QSAR) was used to predict the inhibitory action of a series of alcohols on cytochrome P-450 aniline p-hydroxylation.
The values are expressed as PI50, where I50 is the concentration of the alcohol (in mM) at which the activity of the enzyme is 50% inhibited, and PI50 is the negative logarithm of I50. More positive numbers correspond to more strongly inhibiting alcohols.

Compound: OCc1ccccc1 [benzyl alcohol]
- activity compared with QSAR prediction: higher activity than is predicted
